Results taken from ChEMBL document CHEMBL1201862, “PubChem BioAssay data set” (2004).
Active and inactive are the calls of the source.

Columns and labels:
[1] = loss of viability in HepG2 cells – cell-based, CellTiter-Glo, cherry-picked, cytotoxicity control for Shn3 inhibitor project, dose response (AID 624134); format: functional
[2] = viability of PTEN-deleted HCT116 cells – cell-based, HCT116 PTEN knockout, dose response (AID 1047); format: functional;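 also: HCT116 colon tumor cells with PTEN knocked out; cells exposed to compound for 60 hours before readout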
[3] = molecular target: T1, Beta-galactosidase (Escherichia coli, UniProt Q8VNN2); format: functional
T1 sequence (Q8VNN2 whole entry): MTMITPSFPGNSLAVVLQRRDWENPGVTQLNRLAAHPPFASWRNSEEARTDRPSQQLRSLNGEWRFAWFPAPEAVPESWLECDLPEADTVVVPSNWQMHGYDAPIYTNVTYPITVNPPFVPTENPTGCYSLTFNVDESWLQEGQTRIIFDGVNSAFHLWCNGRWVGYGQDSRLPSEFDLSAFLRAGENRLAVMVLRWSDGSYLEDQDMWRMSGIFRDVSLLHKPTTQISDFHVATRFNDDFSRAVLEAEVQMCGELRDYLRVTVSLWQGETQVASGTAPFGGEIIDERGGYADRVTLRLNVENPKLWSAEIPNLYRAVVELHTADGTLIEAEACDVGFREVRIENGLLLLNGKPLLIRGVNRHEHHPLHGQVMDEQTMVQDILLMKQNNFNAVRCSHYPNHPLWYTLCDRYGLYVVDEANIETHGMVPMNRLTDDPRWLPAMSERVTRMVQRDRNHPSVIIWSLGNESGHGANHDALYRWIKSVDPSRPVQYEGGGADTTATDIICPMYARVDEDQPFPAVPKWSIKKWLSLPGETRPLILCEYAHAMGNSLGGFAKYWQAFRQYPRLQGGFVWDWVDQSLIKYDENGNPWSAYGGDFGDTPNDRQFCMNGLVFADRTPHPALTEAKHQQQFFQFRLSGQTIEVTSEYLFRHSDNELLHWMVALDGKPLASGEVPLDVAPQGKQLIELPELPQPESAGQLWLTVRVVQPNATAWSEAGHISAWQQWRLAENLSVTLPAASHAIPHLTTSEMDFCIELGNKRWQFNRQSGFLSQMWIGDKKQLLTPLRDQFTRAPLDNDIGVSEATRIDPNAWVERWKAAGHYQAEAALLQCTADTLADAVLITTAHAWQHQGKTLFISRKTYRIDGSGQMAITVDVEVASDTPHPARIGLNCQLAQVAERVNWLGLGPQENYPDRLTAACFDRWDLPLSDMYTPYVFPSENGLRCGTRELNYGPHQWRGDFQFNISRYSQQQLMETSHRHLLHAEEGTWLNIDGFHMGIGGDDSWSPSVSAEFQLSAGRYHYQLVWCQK

[4] = HEK-293T viability loss after treatment – luminescence, T-cell screen hits, cytotoxicity control for TCR NF-kB inhibitor project, dose response (AID 489026); format: functional, cell-based;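 also: cells exposed to compound about 14 hours before the viability readout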
[5] = molecular target: T2, Kappa-type opioid receptor (Homo sapiens, UniProt P41145); format: functional
T2 sequence (P41145 whole entry): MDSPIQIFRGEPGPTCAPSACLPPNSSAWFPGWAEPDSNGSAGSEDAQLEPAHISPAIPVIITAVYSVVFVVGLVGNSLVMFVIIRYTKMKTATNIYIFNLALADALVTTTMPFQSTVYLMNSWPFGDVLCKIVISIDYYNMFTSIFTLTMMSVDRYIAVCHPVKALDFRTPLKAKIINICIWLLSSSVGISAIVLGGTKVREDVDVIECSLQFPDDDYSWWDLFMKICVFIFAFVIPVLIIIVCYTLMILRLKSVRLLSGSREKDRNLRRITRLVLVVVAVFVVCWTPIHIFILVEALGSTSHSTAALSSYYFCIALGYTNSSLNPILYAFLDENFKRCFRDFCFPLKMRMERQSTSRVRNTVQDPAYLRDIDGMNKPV

[6] = system: Streptococcus; assay: GAS UMAA2166 growth inhibition – luminescence, BacTiterGlo, counter-screen for streptokinase expression inhibitor project, dose response (AID 1915); format: functional, organism-based;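 also: potency for reduction of bacterial viability or growth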
[7] = molecular target: Beta Lactamase (Pseudomonas aeruginosa, UniProt Q932Y6); assay: BLA reporter interference, concentration series – BLA reporter cells, FRET fluorescence, artefact control for TLR9-MyD88 binding inhibitor project, dose response (AID 588341); format: cell-based;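 also: cell based assay in CHO-K1 cells stably expressing beta-lactamase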
[8] = alpha-synuclein stem-loop luciferase translation blockers – H4 neuroglioma cells, luminescence, confirmation (AID 1988); format: functional, cell-based
[9] = molecular target: Mu-type opioid receptor (Homo sapiens, UniProt P35372); assay: HTS Image-Based Screen for Agonists of the MOR Receptor. [Related pubchem assays (depositor defined):AID1777, AID1785, AID1786, AID2133]; format: functional;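 also: imaging of beta-arrestin GFP recruitment into spots after receptor activation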
Chain of Mu-type opioid receptor (P35372 whole entry): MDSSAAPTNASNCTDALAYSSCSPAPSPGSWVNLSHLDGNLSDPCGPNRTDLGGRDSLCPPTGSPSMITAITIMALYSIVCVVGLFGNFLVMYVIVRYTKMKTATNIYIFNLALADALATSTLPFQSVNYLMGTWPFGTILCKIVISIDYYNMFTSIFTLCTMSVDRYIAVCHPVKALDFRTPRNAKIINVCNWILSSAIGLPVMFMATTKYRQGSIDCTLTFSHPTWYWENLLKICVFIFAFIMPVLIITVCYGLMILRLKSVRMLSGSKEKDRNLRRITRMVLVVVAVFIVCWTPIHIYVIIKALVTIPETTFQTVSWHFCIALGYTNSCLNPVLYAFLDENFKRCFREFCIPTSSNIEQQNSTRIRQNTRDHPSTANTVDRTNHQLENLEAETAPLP

[10] = system: Streptococcus sp. 'group A'; assay: Streptococcus pyogenes SK(-)GAS viability under kanamycin – luminescence, BacTiterGlo, confirmation, counter-screen for streptokinase expression inhibitor project, dose response (AID 1900); format: functional, organism-based
[11] = molecular target: T3, Delta-type opioid receptor (Homo sapiens, UniProt P41143); assay: HTS Image-Based Screen for Agonists of the DOR Receptor. [Related pubchem assays (depositor defined):AID1777, AID1786, AID2133]; format: functional
T3 sequence (P41143 whole entry): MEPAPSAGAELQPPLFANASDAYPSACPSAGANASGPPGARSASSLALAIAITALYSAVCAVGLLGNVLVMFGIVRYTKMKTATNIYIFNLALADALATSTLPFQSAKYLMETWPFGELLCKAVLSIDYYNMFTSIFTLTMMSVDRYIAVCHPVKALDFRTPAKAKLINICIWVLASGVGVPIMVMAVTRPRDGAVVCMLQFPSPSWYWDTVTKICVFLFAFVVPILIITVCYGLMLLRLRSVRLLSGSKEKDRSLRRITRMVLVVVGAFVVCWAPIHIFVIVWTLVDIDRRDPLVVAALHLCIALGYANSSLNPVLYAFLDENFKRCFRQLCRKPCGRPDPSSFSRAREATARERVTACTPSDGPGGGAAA

[12] = molecular target: T3, Delta-type opioid receptor; assay: HTS Image-Based Screen for Antagonists of the DOR Receptor. [Related pubchem assays (depositor defined):AID1777, AID1785, AID1786, AID2133]; format: functional
[13] = molecular target: T2, Kappa-type opioid receptor; format: functional; remark: listed apart in the source
[14] = luciferase reporter signal suppression in cells – H4 neuroglioma cells, luminescence, dose response (AID 1990); format: functional, cell-based
[15] = molecular target: T4, fMet-Leu-Phe receptor (Homo sapiens, UniProt P21462); assay: formyl peptide receptor binders – dose response (AID 519); format: functional
T4 sequence (P21462 whole entry): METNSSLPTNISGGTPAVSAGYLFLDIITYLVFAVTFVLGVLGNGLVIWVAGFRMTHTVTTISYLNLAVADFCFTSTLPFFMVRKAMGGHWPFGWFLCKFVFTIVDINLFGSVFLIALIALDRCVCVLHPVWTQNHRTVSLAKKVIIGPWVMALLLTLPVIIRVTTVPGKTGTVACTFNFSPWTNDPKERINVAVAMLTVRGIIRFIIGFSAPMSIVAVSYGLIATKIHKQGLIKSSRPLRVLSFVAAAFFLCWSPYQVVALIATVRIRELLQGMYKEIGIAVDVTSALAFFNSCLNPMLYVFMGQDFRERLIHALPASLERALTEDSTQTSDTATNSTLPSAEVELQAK

[16] = molecular target: T5, Streptokinase A (Streptococcus pyogenes serotype M1, UniProt P10520); assay: viability-normalized secreted streptokinase activity reduction – plasminogen activation absorbance, OD405, dose response (AID 1914); format: functional, Streptococcus pyogenes M1 GAS;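 also: secreted streptokinase activity via plasminogen activation per viability signal from cell pellet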
T5 sequence (P10520 whole entry): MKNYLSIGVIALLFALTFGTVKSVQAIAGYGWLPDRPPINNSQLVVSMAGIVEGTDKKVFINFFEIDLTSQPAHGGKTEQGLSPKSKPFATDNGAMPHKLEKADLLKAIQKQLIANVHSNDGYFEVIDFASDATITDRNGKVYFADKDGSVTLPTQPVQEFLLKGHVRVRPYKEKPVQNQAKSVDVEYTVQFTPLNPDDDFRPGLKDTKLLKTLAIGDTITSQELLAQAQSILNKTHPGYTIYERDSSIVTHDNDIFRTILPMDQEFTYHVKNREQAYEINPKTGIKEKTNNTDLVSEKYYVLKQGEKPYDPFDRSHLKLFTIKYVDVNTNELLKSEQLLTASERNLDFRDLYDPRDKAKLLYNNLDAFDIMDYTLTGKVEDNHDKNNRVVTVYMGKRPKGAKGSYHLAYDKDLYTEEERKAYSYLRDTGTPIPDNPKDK

[17] = reduction of Shn3 3'UTR-driven luciferase in osteoblasts – cell-based, Clone20 osteoblasts, firefly luciferase, cherry-picked, dose response (AID 624132); format: functional;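 also: firefly luciferase luminescence from reporter carrying the Shn3 3'UTR in osteoblasts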
[18] = non-specific 3'UTR reporter inhibition in Clone20-Shn3RL – cell-based, Renilla luciferase, cherry-picked, counter-screen for Shn3 inhibitor project, dose response (AID 624133); format: functional
[19] = Luminescence Cell-Based Dose Response HTS to Identify Inhibitors of 5'UTR Stem-Loop Driven Prion Protein mRNA Translation in H4 Neuroglioblastoma Cells. [Related pubchem assays: 1827 (Project Summary), 1813 (Primary HTS)]; format: functional
[20] = viability of HCT116 lacking mutant beta-catenin – cell-based, human colon tumor, dose response (AID 1045); format: functional;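 also: HCT116 colon tumor cells with beta catenin knocked out; cells exposed to compound for 60 hours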
[21] = system: CHO; assay: CHO cell viability loss, potency – luminescence, cytotoxicity control for TLR9-MyD88 binding inhibitor project, dose response (AID 588339); format: functional, cell-based, hamster; conditions: Cricetulus griseus;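 also: CHO cells stably coexpressing TLR9 and MyD88 fusions from primary screen; compound exposure lasted 48 hours before viability readout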
[22] = system: Escherichia coli; assay: microbe, parasite or virus in culture
[23] = system: Escherichia coli; assay: microbe, parasite or virus in culture; remark: listed apart in the source
[24] = molecular target: Type-1 angiotensin II receptor (Homo sapiens, UniProt P30556); assay: antagonism of angiotensin II type 1 receptor – cell-based, uHTS hits, selectivity assay for APJ receptor antagonist project, dose response (AID 463214); format: functional;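 also: antagonist potency against angiotensin II stimulated AT1 response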
Chain of Type-1 angiotensin II receptor (P30556 whole entry): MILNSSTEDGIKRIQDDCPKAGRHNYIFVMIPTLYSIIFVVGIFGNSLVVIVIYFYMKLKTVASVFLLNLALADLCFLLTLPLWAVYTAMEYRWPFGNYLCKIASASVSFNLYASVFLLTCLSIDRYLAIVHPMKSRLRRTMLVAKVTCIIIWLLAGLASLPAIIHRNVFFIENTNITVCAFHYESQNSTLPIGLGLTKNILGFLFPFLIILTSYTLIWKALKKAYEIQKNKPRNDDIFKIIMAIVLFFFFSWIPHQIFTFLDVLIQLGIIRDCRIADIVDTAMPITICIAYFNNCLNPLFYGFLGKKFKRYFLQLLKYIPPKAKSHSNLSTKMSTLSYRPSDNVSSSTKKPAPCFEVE

[25] = molecular target: T1, Beta-galactosidase; assay: PubChem AID 485352; format: functional
[26] = NIH-3T3 fibroblast cytotoxicity, dose response, cytotoxicity control, cell-based, fluorescence, Alamar Blue, secondary assay (AID 2327); format: functional;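 also: NIH-3T3 mouse fibroblasts cultured with fluconazole at 8 µg/mL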
[27] = fluconazole-exposed Candida albicans growth modulators – fluorescence, retest, confirmation (AID 2467); format: functional, cell-based
[28] = molecular target: Serine/threonine-protein phosphatase (Candida dubliniensis (strain CD36 / CBS 7987 / NCPF 3949 / NRRLY-17841) (Yeast), UniProt B9W6M3); assay: blockers of CaCl2-induced CDRE-lacZ signaling – S. cerevisiae, luminescence, secondary, dose response (AID 2388); format: functional, cell-based;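 also: yeast reporter cells carrying a calcineurin-responsive lacZ construct stimulated with calcium chloride; luminescent beta-galactosidase reporter signal in whole cells rather than isolated phosphatase activity; potency for inhibition where a drop in reporter signal means calcineurin blockade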
Chain of Serine/threonine-protein phosphatase (B9W6M3 whole entry): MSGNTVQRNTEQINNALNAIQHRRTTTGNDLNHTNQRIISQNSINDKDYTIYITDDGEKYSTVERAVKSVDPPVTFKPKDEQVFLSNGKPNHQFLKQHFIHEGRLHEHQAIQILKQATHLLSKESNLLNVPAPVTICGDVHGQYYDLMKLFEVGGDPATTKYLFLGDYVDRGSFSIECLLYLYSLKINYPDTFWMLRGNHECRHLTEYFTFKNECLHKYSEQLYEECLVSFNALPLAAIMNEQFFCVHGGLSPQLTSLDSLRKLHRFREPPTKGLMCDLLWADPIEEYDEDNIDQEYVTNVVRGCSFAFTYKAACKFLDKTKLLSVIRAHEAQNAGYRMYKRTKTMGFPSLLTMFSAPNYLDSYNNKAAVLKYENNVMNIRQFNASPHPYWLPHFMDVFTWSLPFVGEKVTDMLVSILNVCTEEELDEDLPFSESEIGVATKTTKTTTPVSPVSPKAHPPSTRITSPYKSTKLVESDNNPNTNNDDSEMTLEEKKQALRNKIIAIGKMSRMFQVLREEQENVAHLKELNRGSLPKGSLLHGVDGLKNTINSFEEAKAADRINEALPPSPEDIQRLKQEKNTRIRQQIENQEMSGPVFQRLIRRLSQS

[29] = molecular target: ATP-dependent molecular chaperone HSP82 (Candida albicans (strain WO-1) (Yeast), UniProt C4YTQ8); assay: steroid-induced GRE reporter decrease in yeast – S. cerevisiae, luminescence, Hsp90 inhibitor project, dose response (AID 2400); format: functional, cell-based;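 also: beta-galactosidase luminescence from glucocorticoid response element reporter as proxy for Hsp90 function; inhibitor potency where signal loss means Hsp90 inhibition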
Chain of ATP-dependent molecular chaperone HSP82 (C4YTQ8 whole entry): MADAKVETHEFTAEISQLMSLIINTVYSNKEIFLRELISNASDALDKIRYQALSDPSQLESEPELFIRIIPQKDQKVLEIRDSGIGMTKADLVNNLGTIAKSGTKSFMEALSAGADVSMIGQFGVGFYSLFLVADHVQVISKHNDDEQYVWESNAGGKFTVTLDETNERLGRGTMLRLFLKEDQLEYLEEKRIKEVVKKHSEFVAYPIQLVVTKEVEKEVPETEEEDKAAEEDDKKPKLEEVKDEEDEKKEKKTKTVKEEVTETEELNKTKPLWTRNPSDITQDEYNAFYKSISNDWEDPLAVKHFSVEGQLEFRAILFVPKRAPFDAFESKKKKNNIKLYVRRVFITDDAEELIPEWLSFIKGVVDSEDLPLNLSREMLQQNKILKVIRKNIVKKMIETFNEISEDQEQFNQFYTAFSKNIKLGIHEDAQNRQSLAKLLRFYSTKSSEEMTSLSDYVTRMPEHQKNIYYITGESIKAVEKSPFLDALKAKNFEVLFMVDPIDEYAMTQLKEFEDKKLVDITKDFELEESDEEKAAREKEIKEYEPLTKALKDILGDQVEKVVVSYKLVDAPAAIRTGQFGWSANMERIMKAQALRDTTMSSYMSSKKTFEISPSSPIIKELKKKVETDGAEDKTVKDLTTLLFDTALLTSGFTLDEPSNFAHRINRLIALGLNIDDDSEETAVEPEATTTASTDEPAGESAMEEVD

[30] = system: Vero; assay: viability of Vero cells under compound – cytotoxicity control for flavivirus capping enzyme inhibitors (AID 588742); format: functional; conditions: Chlorocebus sabaeus
[31] = molecular target: Genome polyprotein (dengue virus type 2, UniProt P29990); assay: flavivirus cap methylation enzyme inhibition – biochemical, confirmation dose response, primary screen (AID 588689); format: functional
Chain of Genome polyprotein (P29990 2492-3391 limits assumed): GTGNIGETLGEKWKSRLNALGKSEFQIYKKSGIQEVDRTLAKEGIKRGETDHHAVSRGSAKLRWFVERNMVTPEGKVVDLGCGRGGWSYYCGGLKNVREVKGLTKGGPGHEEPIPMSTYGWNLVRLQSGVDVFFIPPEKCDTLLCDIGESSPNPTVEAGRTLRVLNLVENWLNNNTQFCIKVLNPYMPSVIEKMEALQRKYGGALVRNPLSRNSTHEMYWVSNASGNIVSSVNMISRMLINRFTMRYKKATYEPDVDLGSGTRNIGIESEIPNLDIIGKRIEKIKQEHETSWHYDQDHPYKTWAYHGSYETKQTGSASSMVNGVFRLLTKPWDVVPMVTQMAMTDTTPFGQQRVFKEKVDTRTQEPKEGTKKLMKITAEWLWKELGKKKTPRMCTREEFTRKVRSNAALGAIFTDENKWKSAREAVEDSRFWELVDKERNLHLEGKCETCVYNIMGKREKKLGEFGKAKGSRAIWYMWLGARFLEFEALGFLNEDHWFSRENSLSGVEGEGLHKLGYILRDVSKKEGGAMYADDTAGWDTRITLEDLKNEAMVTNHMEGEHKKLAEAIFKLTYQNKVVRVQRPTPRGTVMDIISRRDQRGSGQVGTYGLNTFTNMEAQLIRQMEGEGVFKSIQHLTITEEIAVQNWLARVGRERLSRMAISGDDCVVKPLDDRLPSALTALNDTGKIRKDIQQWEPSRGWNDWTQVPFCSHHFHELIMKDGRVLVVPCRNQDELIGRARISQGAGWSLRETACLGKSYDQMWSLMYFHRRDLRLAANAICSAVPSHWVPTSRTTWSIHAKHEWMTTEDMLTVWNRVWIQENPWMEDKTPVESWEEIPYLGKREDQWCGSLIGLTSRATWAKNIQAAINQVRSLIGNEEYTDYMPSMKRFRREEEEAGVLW

O=S(=O)(Nc1cccc2ncccc12)c1cccs1
AC50 [1]: 6.33 µM (active)
EC50 [2]: 1.97 µM (active)
EC50 [3]: > 31.5 µM (inactive)
IC50 [4]: > 80 µM (inactive)
IC50 [5]: > 32 µM
EC50 [6]: 7.13 µM (active)
IC50 [7]: > 49.7 µM (inactive)
EC50 [8]: 11.8 µM (active)
EC50 [9]: > 32 µM (inactive)
EC50 [10]: 3.58 µM (active)
EC50 [11]: > 32 µM (inactive)
IC50 [12]: > 32 µM (inactive)
IC50 [13]: 2.64 µM (active)
EC50 [14]: 15.3 µM (active)
Ki [15]: > 66.7 µM (inactive)
EC50 [16]: > 150 µM (not active)
AC50 [17]: 4.3 µM (active)
AC50 [18]: 13.2 µM (active)
EC50 [19]: 7.05 µM (active)
EC50 [20]: 1.62 µM (active)
IC50 [21]: 4.34 µM (active)

CCC[C@@H]1C[C@@]1(CCC)[C@@H](NC(=O)c1ccccc1)c1ccc(C(=O)OC)cc1
AC50 [22]: > 380 µM (inactive)
AC50 [23]: 21.2 µM (active)

Cc1ccc(C(=O)CNc2ccccc2)cc1
IC50 [24]: 9.14 µM (active)
EC50 [25]: > 40 µM (inactive)

CCOc1ccc(NC(=O)c2cn(-c3ccc(OCC)cc3)c(=O)c3cc(OC)c(OC)cc23)cc1
EC50 [26]: > 160 µM (inconclusive)
EC50 [27]: 0.789 µM (active)
EC50 [28]: > 180 µM (inactive)
EC50 [29]: > 160 µM (inactive)

CCOC(=O)c1c(NC(=O)/C=C/C(=O)O)sc(C)c1-c1ccc(Cl)cc1
CC50 [30]: > 40 µM (active)
IC50 [31]: 43 µM (active)
